Reference: patent publication US12208093B2 (THE JOHNS HOPKINS UNIVERSITY, priority 2016, dated 2025)
“Also recorded” adds a separate entry of the source. Counter-ions that a name gives are not always drawn.

How the values were obtained:
MCMV = MCMV infection model in BALB/c mice; type: in vivo, Murid Herpesvirus (MCMV) in BALB/c mice
Experimental: Control mice received 0.1 ml of saline intraperitoneally. […] Control and infected mice received equivalent volumes of saline. […] Mice were sacrificed at day 14 after infection. Blood samples were collected by cardiac puncture. […] Two million MEFs were seeded into 24 well plates. […] Plaques were counted after three days. […] The gB primers were: F: 5′ […] 3′ (SEQ ID NO:1); R: 5′ […] 3′(SEQ ID NO:2) (43).

RPS14 = RPS14 (Homo sapiens, UniProt P62263); assay: Confocal microscopy of RPS14 localization; type: cell-based; conditions: 24 hpi; infected cells; emetine 75 nM
Experimental: Confocal microscopy. […] Cells were fixed with 3.7% paraformaldehyde for 20 min at room temperature, permeabilized with ice cold methanol for 10 min at −20° C. and blocked with 5% bovine serum albumin in 0.5% Tween-20 for 20 min at room temperature. Cells were incubated with primary antibodies at 4° C. overnight, washed and incubated with fluorescently labeled secondary antibodies for 2 h at 37° C. Fluorescence microscopy was performed by using a confocal laser scanning microscope (Nikon EZ Cl confocal microscope). All images were captured at 60× magnification and processed under identical conditions with constant parameters (including scan speed and excitation and emission wavelengths) using Nikon EZ Cl software.

CC[C@H]1CN2CCc3cc(OC)c(OC)cc3[C@@H]2C[C@@H]1C[C@H]1NCCc2cc(OC)c(OC)cc21 [emetine, emetine dihydrochloride hydrate]
MCMV inhibition in mice (MCMV; oral every 72 h / three days, low dose 0.1 mg/kg, dihydrochloride hydrate, 0.1 mg/kg): inhibited; also recorded: high efficacy; also recorded: inhibits mouse CMV replication; also recorded: effectively suppressed MCMV
difference in efficacy between 0.1 and 1 mg/kg (MCMV; oral, every three days): no significant difference
RPS14 localization (RPS14): induced RPS14 translocation into the nucleus
